# Assay results: ChEMBL document CHEMBL5370539, “Oxazole-4-carboxamide/butylated hydroxytoluene hybrids with GSK-3β inhibitory and neuroprotective activities against Alzheimer's disease” (Eur J Med Chem, 2023)
# Activity calls are given as the source filed them. The rule behind the calls is not given here.
# How the values were obtained:
# [1] = test system: PC-12; assay: Neuroprotective activity against rat PC12 cells assessed as decrease in H2O2-induced intracellular Ca2+ level at 5 uM preincubated for 12 hrs followed by replacement with fresh media and H2O2 stimulation for 12 hrs by Fluo-3 AM based flow cytometry relative to control; type: functional; parameters: scale not given: the % may be the effect or the level left
# [2] = test system: PC-12; assay: Anti-apoptotic activity against H2O2-induced apoptosis in rat PC12 cells assessed as early apoptotic cells at 10 uM preincubated for 12 hrs followed by replacement with fresh media and H2O2 stimulation for 12 hrs by Annexin-V/7-AAD staining based flow cytometry (Rvb=0.8%); type: functional
# [3] = test system: Mus musculus; assay: Antialzheimer activity in okadaic acid-induced cognitive impairment ICR mouse model assessed as increase in number of groups crossing virtual platform at 0.08 to 0.24 mg/kg, iv twice at 3days interval before and after okadaic acid stimulation measured upto 14 days by Morris water maze test relative to control; type: functional, organism-based; details: dose 0.08-0.24 mg/kg, time <= 14.0 day
# [4] = test system: PC-12; assay: Neuroprotective activity against H2O2-induced cytotoxicity in rat PC12 cells assessed as increase in cell viability at 10 uM pretreated with Brusatol for 1hrs and preincubated for 12 hrs followed by replacement with fresh media and H2O2 stimulation for 12 hrs by MTT assay; type: functional, cell-based
# [5] = test system: L02; assay: Cytotoxicity against human L02 cells assessed as cell viability at 6.25 to 100 uM incubated for 24 hrs by MTT assay; type: toxicity, cell-based; details: l02, 24 h, dose 6.25-100 µM
# [6] = test system: PC-12; assay: Neuroprotective activity against rat PC12 cells assessed as decrease in H2O2-induced mitochondrial membrane potential level at 2.5 uM preincubated for 12 hrs followed by replacement with fresh media and H2O2 stimulation for 12 hrs by JC-1 dye based flow cytometry (Rvb= 95.3%); type: functional; parameters: scale not given: the % may be the effect or the level left
# [7] = test system: PC-12; assay: Anti-apoptotic activity against H2O2-induced apoptosis in rat PC12 cells assessed as early apoptotic cells at 5 uM preincubated for 12 hrs followed by replacement with fresh media and H2O2 stimulation for 12 hrs by Annexin-V/7-AAD staining based flow cytometry (Rvb=0.8%); type: functional
# [8] = test system: PC-12; assay: Anti-apoptotic activity against H2O2-induced apoptosis in rat PC12 cells assessed as living cells at 5 uM preincubated for 12 hrs followed by replacement with fresh media and H2O2 stimulation for 12 hrs by Annexin-V/7-AAD staining based flow cytometry (Rvb=92.9%); type: functional
# [9] = test system: PC12; assay: Activation of Nrf2-ARE pathway in rat PC-12 cells assessed as increase in Nrf2 expression level at 2.5 to 10 uM incubated for 12 hrs by Western blot analysis; type: cell-based; details: filed as activator, dose 2.5-10 µM
# [10] = test system: PC-12; assay: Anti-apoptotic activity against H2O2-induced apoptosis in rat PC12 cells assessed as late apoptotic cells at 2.5 uM preincubated for 12 hrs followed by replacement with fresh media and H2O2 stimulation for 12 hrs by Annexin-V/7-AAD staining based flow cytometry (Rvb=2.2 %); type: functional
# [11] = test system: Mus musculus; assay: Antialzheimer activity in okadaic acid-induced cognitive impairment ICR mouse model assessed as increase of search time in target quadrant at 0.08 to 0.24 mg/kg, iv twice at 3days interval before and after okadaic acid stimulation measured upto 14 days by Morris water maze test relative to control; type: functional, organism-based; details: dose 0.08-0.24 mg/kg, time <= 14.0 day
# [12] = Toxicity in okadaic acid-induced cognitive impairment ICR mouse model assessed as swimming speed change at 0.08 to 0.24 mg/kg, iv twice at 3days interval before and after okadaic acid stimulation measured for 5 days by Morris water maze test; type: organism-based; details: in vivo, 120 h, dose 0.08-0.24 mg/kg, time 5 day
# [13] = test system: PC12; assay: Activation of Nrf2-ARE pathway in rat PC-12 cells assessed as increase in GCLM expression level at 2.5 to 10 uM incubated for 24 hrs by Western blot analysis; type: cell-based; details: filed as activator, dose 2.5-10 µM
# [14] = test system: PC-12; assay: Anti-apoptotic activity against H2O2-induced apoptosis in rat PC12 cells assessed as early apoptotic cells at 2.5 uM preincubated for 12 hrs followed by replacement with fresh media and H2O2 stimulation for 12 hrs by Annexin-V/7-AAD staining based flow cytometry (Rvb=0.8%); type: functional
# [15] = test system: PC-12; assay: Neuroprotective activity against rat PC12 cells assessed as decrease in H2O2-induced mitochondrial membrane potential level at 5 uM preincubated for 12 hrs followed by replacement with fresh media and H2O2 stimulation for 12 hrs by JC-1 dye based flow cytometry (Rvb= 95.3%); type: functional; parameters: scale not given: the % may be the effect or the level left
# [16] = test system: PC12; assay: Activation of Nrf2-ARE pathway in rat PC-12 cells assessed as increase in TrxR1 expression level at 2.5 to 10 uM incubated for 6 hrs by Western blot analysis; type: cell-based; details: filed as activator, dose 2.5-10 µM
# [17] = target: T1, Glycogen synthase kinase-3 beta (Homo sapiens, UniProt P49841); assay: Inhibition of recombinant human GSK-3beta using YRRAAVPPSPSLSRHSSPHQ(pS)EDEE as substrate preincubated for 15 mins followed by substrate addition and measured after 60 mins by Kinase-Glo luminescent kinase assay
# Target sequence in this assay (P49841 whole entry): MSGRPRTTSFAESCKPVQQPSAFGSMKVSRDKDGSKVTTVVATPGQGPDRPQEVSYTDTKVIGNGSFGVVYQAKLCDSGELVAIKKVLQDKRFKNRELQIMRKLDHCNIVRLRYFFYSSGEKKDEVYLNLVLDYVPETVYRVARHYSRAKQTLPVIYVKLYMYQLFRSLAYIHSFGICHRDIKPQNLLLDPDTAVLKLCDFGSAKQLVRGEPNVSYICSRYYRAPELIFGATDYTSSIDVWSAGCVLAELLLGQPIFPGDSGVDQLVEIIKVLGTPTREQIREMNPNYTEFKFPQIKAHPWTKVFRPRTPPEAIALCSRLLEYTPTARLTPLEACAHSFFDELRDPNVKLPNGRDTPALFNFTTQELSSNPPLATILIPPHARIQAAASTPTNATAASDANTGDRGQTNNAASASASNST
# [18] = test system: Mus musculus; assay: Antialzheimer activity in okadaic acid-induced cognitive impairment ICR mouse model assessed as reduction in escape time at 0.08 to 0.24 mg/kg, iv twice at 3days interval before and after okadaic acid stimulation measured upto 14 days by Morris water maze test relative to control; type: functional, organism-based; details: dose 0.08-0.24 mg/kg, time <= 14.0 day
# [19] = test system: PC-12; assay: Anti-apoptotic activity against H2O2-induced apoptosis in rat PC12 cells assessed as living cells at 10 uM preincubated for 12 hrs followed by replacement with fresh media and H2O2 stimulation for 12 hrs by Annexin-V/7-AAD staining based flow cytometry (Rvb=92.9%); type: functional
# [20] = test system: PC-12; assay: Neuroprotective activity against rat PC12 cells assessed as decrease in H2O2-induced intracellular Ca2+ level at 10 uM preincubated for 12 hrs followed by replacement with fresh media and H2O2 stimulation for 12 hrs by Fluo-3 AM based flow cytometry relative to control; type: functional; parameters: scale not given: the % may be the effect or the level left
# [21] = test system: PC-12; assay: Anti-apoptotic activity against H2O2-induced apoptosis in rat PC12 cells assessed as living cells at 2.5 uM preincubated for 12 hrs followed by replacement with fresh media and H2O2 stimulation for 12 hrs by Annexin-V/7-AAD staining based flow cytometry (Rvb=92.9%); type: functional
# [22] = target: T1, Glycogen synthase kinase-3 beta; assay: Inhibition of human GSK-3beta overexpressed in human HEK293T cells assessed as reduction in GSK-3beta expression level at 0.625 to 10 uM incubated for 24 hrs by Western blot analysis; type: cell-based; details: dose 0.625-10 µM
# Target sequence in this assay (P49841 whole entry, looked up): as the sequence (P49841 whole entry) above
# [23] = test system: PC-12; assay: Anti-apoptotic activity against H2O2-induced apoptosis in rat PC12 cells assessed as dead cells at 2.5 uM preincubated for 12 hrs followed by replacement with fresh media and H2O2 stimulation for 12 hrs by Annexin-V/7-AAD staining based flow cytometry (Rvb=4.1%); type: functional
# [24] = test system: PC-12; assay: Neuroprotective activity against rat PC12 cells assessed as decrease in H2O2-induced intracellular ROS production at 2.5 to 10 uM preincubated for 12 hrs followed by replacement with fresh media and H2O2 stimulation for 12 hrs by DCFH-DA staining based flow cytometry; type: functional, cell-based; details: dose 2.5-10 µM
# [25] = target: T1, Glycogen synthase kinase-3 beta; assay: Inhibition of human GSK-3beta overexpressed in human HEK293T cells assessed as decrease in Tau phosphorylation at s396 at 0.625 to 10 uM incubated for 24 hrs by Western blot analysis; type: cell-based; details: dose 0.625-10 µM
# Target sequence in this assay (P49841 whole entry, looked up): as the sequence (P49841 whole entry) above
# [26] = Toxicity in okadaic acid-induced cognitive impairment ICR mouse model assessed as body weight change at 0.08 to 0.24 mg/kg, iv twice at 3days interval before and after okadaic acid stimulation measured upto 14 days; type: organism-based; details: in vivo, 336 h, dose 0.08-0.24 mg/kg, time < 14 day
smiles,measurement,setting,value
COc1ccc(-c2ocnc2C(=O)NCCCc2ccc(NC(=O)/C=C/c3cc(C(C)(C)C)c(O)c(C(C)(C)C)c3)cc2)cc1Cl,Activity,[1],28.4%
same,Activity,[2],2%
same,Activity,[3],Active
same,Activity,[4],inactive
same,Activity,[5],Non-Toxic
same,Activity,[6],68.4%
same,Activity,[7],1.5%
same,Activity,[8],93.1%
same,Activity,[9],Dose-Dependent Effect
same,Activity,[10],16.4%
same,Activity,[11],Active
same,Activity,[12],Non-Toxic
same,Activity,[13],Dose-Dependent Effect
same,Activity,[14],5.5%
same,Activity,[15],72.6%
same,Activity,[16],Dose-Dependent Effect
same,IC50,[17],0.25 nM
same,Activity,[18],Dose-Dependent Effect
same,Activity,[19],90.7%
same,Activity,[20],31.1%
same,Activity,[21],76.8%
same,inhibition,[22],Dose-Dependent Effect
same,Activity,[23],1.3%
same,Activity,[24],Dose-Dependent Effect
same,inhibition,[25],Dose-Dependent Effect
same,Activity,[26],Non-Toxic
